# Reference: ChEMBL document CHEMBL3352501, “SAR analysis of new anti-TB drugs currently in pre-clinical and clinical development” (Eur J Med Chem, 2014)
# Tests used:
# [1] = test system: Mycobacterium tuberculosis; experiment: Antitubercular activity against Mycobacterium tuberculosis H37Rv assessed as growth inhibition; assay type: functional
# [2] = test system: Mycolicibacterium smegmatis; experiment: Antimicrobial activity against Mycobacterium smegmatis; assay type: functional
# [3] = test system: Mycolicibacterium smegmatis; experiment: Antimicrobial activity against Mycobacterium smegmatis assessed as intracellular bacterial killing; assay type: functional
# [4] = test system: Mycobacterium tuberculosis; experiment: Antitubercular activity against Mycobacterium tuberculosis assessed as growth inhibition; assay type: functional
# Mycobacterium avium = experiment: Antimycobacterial activity against Mycobacterium avium assessed as growth inhibition; assay type: functional
# [5] = Oral bioavailability in dog; assay type: ADME, organism-based, Canis lupus familiaris; details: in vivo
# [6] = test system: Mycobacterium tuberculosis; experiment: Antitubercular activity against drug-susceptible Mycobacterium tuberculosis clinical isolates assessed as growth inhibition; assay type: functional
# [7] = test system: Mycobacterium tuberculosis; experiment: Antitubercular activity against Mycobacterium tuberculosis infected in mouse assessed as reduction in colony formation at 20 mg/kg for 20 days; assay type: functional
# [8] = test system: Mycobacterium tuberculosis; experiment: Antitubercular activity against Mycobacterium tuberculosis assessed as growth inhibition by alamar blue assay; assay type: functional
# [9] = test system: Mycobacterium tuberculosis; experiment: Antitubercular activity against XDR clinical isolates Mycobacterium tuberculosis […] assessed as growth inhibition in presence of […] clavulanate; assay type: functional
# [10] = test system: Mycobacterium tuberculosis; experiment: Antitubercular activity against Mycobacterium tuberculosis infected in mouse J774A.1 assessed as reduction in bacterial count; assay type: functional
# [11] = test system: Mycobacterium tuberculosis; experiment: Antitubercular activity against Mycobacterium tuberculosis H37Rv assessed as growth inhibition in presence of […] clavulanate; assay type: functional
compound,measurement,setting,value
C[C@@]1(COc2ccc(N3CCC(Oc4ccc(OC(F)(F)F)cc4)CC3)cc2)Cn2c([N+](=O)[O-])cnc2O1,MIC,[1],0.012 µg/mL
C[C@H]1COC2(CCN(c3nc(=O)c4cc(C(F)(F)F)cc([N+](=O)[O-])c4s3)CC2)O1 [BTZ-043],MIC,[2],0.004 µg/mL
same,MIC,[1],0.001 µg/mL
same,MIC,[3],< 0.01 µg/mL
O=c1nc(N2CCN(CCC3CCCCC3)CC2)sc2c([N+](=O)[O-])cc(C(F)(F)F)cc12,MIC,[1],0.00019 µg/mL
CC(=O)NC[C@H]1CN(c2ccc(N3CCSCC3)c(F)c2)C(=O)O1 [SUTEZOLID],MIC,[4],0.125 µg/mL
O=c1nc(N2CCN(CCCCc3ccccc3)CC2)sc2c([N+](=O)[O-])cc(C(F)(F)F)cc12,MIC,[1],0.00019 µg/mL
CO[C@H]1/C=C/O[C@@]2(C)Oc3c(C)c(O)c4c(c3C2=O)C2=NC3(CCN(CC(C)C)CC3)NC2=C(NC(=O)/C(C)=C\C=C\[C@H](C)[C@H](O)[C@@H](C)[C@@H](O)[C@@H](C)[C@H](OC(C)=O)[C@@H]1C)C4=O [RIFABUTIN],MIC,Mycobacterium avium,0.06 µg/mL
same,MIC,[1],0.015 µg/mL
CCCCCCCN1CCN(c2nc(=O)c3cc(C(F)(F)F)cc([N+](=O)[O-])c3s2)CC1,MIC,[1],0.00019 µg/mL
CO[C@H]1/C=C/O[C@@]2(C)Oc3c(C)c(O)c4c(O)c(c(/C=N/N5CCN(C)CC5)c(O)c4c3C2=O)NC(=O)/C(C)=C\C=C\[C@H](C)[C@H](O)[C@@H](C)[C@@H](O)[C@@H](C)[C@H](OC(C)=O)[C@@H]1C [RIFAMPIN],MIC,[3],< 1 µg/mL
CC(C)=CCC/C(C)=C/CNCCNC1C2CC3CC(C2)CC1C3 (stereo not drawn) [SQ109],bioavailability,[5],2.4%
same,MIC,[6],0.2 µg/mL
O=c1nc(N2CCN(CCCCOc3ccccc3)CC2)sc2c([N+](=O)[O-])cc(C(F)(F)F)cc12,MIC,[1],0.00019 µg/mL
COc1c(N2CC3(CC3)[C@](C)(N)C2)c(F)cc2c(=O)c(C(=O)O)cn([C@@H]3C[C@@H]3F)c12,MIC90,[4],0.06 µg/mL
CC(=O)NC[C@H]1CN(c2ccc(N3CCOCC3)c(F)c2)C(=O)O1 [LINEZOLID],MIC,[4],< 1 µg/mL
CC(C)/N=c1\cc2n(-c3ccc(Cl)cc3)c3ccccc3nc-2cc1Nc1ccc(Cl)cc1 [CLOFAZIMINE],MIC,[4],0.12 µg/mL
same,MIC,[1],1.21 µg/mL
same,log10cfu,[7],6.33
COc1nc2ccc(Br)cc2cc1[C@@H](c1ccccc1)[C@@](O)(CCN(C)C)c1cccc2ccccc12 [BEDAQUILINE],MBC90,[8],2 µg/mL
same,WCC90,[8],1 µg/mL
same,MIC,[6],0.002 µg/mL
CC1(C)S[C@@H]2[C@H](NC(=O)[C@H](N)c3ccc(O)cc3)C(=O)N2[C@H]1C(=O)O [AMOXICILLIN],MIC,[9],0.23 µg/mL
same,fold change (FC),[10],1.5
same,MIC,[11],0.32 µg/mL
CCc1nc2ccc(Cl)cn2c1C(=O)NCc1ccc(N2CCC(c3ccc(OC(F)(F)F)cc3)CC2)cc1 [TELACEBEC],MIC90,[9],< 0.43 nM
same,MIC,[1],2.7 nM
O=[N+]([O-])c1cn2c(n1)OC[C@@H](OCc1ccc(OC(F)(F)F)cc1)C2 [PRETOMANID],MIC,[1],0.13 µg/mL
NNC(=O)c1ccncc1 [ISONIAZID],MIC,[3],0.1 µg/mL
O=c1nc(N2CCN(CC3CCCCC3)CC2)sc2c([N+](=O)[O-])cc(C(F)(F)F)cc12 [MACOZINONE],MIC,[1],0.00019 µg/mL
COc1ncccc1Nc1cc2nc3ccccc3n(-c3ccc(OC(F)(F)F)cc3)c-2c/c1=N\C1CCC(OC)CC1 (stereo not drawn),MIC,[1],> 25 µg/mL
same,log10cfu,[7],4.66
O=C([C@@H](O)CO)N1CC=C(c2c(F)cc(N3C[C@H](COc4ccon4)OC3=O)cc2F)CC1 [POSIZOLID],MIC,[1],1 µg/mL
